Assay results reported in patent US20230158155A1, “Cell Surface Receptor Binding Compounds and Conjugates” (priority 2020, published 2023).

Key:
[1] = Serum pharmacokinetic analysis of rIgG1 (anti-IgG2a) antibody conjugates; type: in vivo; details: C57B6 mice, intravenous, 10 μg/mouse, 0.5-24 hours, FIGS. 20A-20C
Experimental: A pharmacokinetic analysis of the rIgG1 (anti-IgG2a) antibody conjugates described in the previous example was performed in mice. In particular, C57B6 mice were intravenously administered each rIgG1 antibody conjugate at 10 μg/mouse (5 mice per group). Blood was collected at 0.5, 1, 2, 6, and 24 hours and serum rIgG1 was analyzed using an ELISA kit (Abcam) according to the manufacturer's instructions. Samples were run across 3 different plates with unconjugated rIgG1 controls (UNLB-anti-IgG2a rIgG1) included on all 3 plates.

[2] = target: T1, recombinant human CI-M6PR protein (Homo sapiens, UniProt P11717); assay: Human CI-M6PR binding assay (ELISA); details: conjugates of ligand linkers
T1 construct: purchased R&D 6418-GR-050
Experimental: Nunc black solid bottom MaxiSorp plates were allowed to incubate overnight at 4° C. coated with […] of recombinant human CI-M6PR protein (R&D, 6418-GR-050) in 50 μL PBS. The next day, coating was decanted and plates were washed 3× with PBS. Wells were blocked with 350 μL of 3% BSA-PBS for 1 hour at room temperature. […] 50 μL of diluted conjugates were added to the plate and allowed to incubate at room temperature for 2 hours. After incubation, solutions in plate were decanted and washed with 350 μL of 0.05% PBS-Tween20 three times, drying the plate each wash on a clean paper towel. 50 μL of peroxidase AffiniPure Mouse Anti-Human IgG (Jackson Immuno, 209-035-088) diluted in 3% BSA-PBS to […] was added to the plate and allowed to incubate for 1 hour at room temperature in the dark. After incubation, solutions in plate were decanted and washed with 350 μL of 0.05% PBS-Tween20 3 times, drying the plate each wash on a clean paper towel. […] 50 μL of QuantaBlu solution was added to wells and allowed to incubate for 5-10 minutes at room temperature. After incubation, plates were read on a Perkin Elmer EnVision using photometric 340 and Umbelliferone 460 filter sets for excitation and emission, respectively. Data analysis and non-linear curve-fitting was performed using GraphPad Prism.

Jurkat cells = assay: Conjugate-mediated uptake of IgG2a-Alexa488 into Jurkat cells (flow cytometry); type: cell-based; details: anti-IgG2a conjugates, 1 hour and 24 hours, FIGS. 21-22
Experimental: The anti-IgG2a conjugates were bound to IgG2a-Alexa488, as follows: equal molar ratios of anti-IgG2a and IgG2a-Alexa488 were added in tissue culture media for 30 minutes at room temperature. The resulting anti-IgG2a:IgG2a antibody-Alexa488 compositions were added to Jurkat cells (100 k cells/50 ul per well, n=2), and Alexa488 fluorescence levels were measured (via Alexa488 measurement) at 1 hour and 24 hours by flow cytometry. Because Alexa488 accumulates in cells, this presents a way to measure total intracellular uptake by cells over time.

T1 sequence (P11717 41-2491): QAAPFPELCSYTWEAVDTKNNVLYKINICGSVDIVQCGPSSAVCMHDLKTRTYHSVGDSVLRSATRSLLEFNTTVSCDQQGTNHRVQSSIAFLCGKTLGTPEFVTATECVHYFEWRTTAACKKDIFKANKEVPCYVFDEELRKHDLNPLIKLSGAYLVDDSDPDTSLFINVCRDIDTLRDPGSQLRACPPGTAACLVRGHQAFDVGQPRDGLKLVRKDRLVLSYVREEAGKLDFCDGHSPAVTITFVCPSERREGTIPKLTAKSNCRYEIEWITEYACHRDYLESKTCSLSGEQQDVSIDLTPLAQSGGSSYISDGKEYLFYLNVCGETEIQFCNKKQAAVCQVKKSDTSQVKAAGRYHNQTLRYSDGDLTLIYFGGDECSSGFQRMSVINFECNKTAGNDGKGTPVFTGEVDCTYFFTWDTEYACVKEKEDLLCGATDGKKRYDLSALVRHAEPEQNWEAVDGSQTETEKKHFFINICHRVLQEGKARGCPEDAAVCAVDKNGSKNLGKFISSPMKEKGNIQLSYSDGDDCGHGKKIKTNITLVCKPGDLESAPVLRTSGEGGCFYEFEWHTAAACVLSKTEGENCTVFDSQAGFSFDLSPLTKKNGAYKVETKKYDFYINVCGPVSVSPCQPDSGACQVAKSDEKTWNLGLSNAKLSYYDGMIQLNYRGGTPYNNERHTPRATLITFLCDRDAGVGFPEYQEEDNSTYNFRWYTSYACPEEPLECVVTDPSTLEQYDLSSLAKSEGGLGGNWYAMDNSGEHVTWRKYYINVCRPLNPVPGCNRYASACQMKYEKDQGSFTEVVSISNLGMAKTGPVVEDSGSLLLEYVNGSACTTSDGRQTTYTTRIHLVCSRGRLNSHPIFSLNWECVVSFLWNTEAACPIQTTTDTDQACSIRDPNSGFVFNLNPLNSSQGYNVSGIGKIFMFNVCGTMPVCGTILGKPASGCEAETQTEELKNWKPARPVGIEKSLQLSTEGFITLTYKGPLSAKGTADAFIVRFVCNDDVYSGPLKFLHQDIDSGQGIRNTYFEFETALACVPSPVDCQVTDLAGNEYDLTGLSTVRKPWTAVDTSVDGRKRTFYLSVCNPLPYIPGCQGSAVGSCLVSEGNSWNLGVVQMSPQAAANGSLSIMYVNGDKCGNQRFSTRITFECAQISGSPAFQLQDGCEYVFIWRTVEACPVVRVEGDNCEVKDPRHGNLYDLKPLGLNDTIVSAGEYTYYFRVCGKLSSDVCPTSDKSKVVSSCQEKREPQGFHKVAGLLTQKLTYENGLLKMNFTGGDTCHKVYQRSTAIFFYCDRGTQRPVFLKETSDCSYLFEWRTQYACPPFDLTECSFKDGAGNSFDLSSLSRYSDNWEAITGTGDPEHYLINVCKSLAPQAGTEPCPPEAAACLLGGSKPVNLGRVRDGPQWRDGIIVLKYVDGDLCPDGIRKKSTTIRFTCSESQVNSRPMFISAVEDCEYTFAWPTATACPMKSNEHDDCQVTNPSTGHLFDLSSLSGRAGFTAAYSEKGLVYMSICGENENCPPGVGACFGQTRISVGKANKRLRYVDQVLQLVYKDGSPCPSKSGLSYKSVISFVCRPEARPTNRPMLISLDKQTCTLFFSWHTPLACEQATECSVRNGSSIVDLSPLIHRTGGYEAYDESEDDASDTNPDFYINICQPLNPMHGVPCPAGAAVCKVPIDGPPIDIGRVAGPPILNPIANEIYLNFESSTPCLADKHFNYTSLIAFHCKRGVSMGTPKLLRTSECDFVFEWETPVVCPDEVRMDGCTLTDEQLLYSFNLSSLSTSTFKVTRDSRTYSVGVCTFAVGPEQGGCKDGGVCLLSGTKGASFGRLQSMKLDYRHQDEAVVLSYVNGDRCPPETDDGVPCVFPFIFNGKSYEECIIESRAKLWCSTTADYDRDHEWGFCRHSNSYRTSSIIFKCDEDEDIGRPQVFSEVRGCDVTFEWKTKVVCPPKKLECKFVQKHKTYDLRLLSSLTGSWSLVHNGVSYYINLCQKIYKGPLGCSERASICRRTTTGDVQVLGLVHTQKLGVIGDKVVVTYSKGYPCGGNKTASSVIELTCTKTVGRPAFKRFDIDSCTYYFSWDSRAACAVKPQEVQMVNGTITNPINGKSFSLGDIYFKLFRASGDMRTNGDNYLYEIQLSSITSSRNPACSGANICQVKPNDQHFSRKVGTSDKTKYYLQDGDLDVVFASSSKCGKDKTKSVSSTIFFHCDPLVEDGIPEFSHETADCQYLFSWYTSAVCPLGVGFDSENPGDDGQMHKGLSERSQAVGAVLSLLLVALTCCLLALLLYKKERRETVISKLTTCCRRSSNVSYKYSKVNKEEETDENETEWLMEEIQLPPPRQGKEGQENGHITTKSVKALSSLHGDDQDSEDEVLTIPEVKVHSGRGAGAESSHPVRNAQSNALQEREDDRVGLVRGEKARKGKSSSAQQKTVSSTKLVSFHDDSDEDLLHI

O=C(CCOCCn1cc(CCO[C@H]2O[C@H](CCP(=O)(O)O)[C@@H](O)[C@H](O)[C@@H]2O)nn1)Oc1c(F)c(F)c(F)c(F)c1F [Compound I-11]
half life (serum rIgG1) compared to Compound I-7 conjugate [1]: longer half life
binding affinity to M6PR compared to Compound I-7 [2]: weaker binding affinity
uptake of IgG2a-Alexa488 into Jurkat cells (Jurkat cells): sufficiently robust uptake

O=C(CCOCCOCCOCCN(CCOCCOCCOCCn1cc(CCC[C@H]2O[C@H](CCP(=O)(O)O)[C@@H](O)[C@H](O)[C@@H]2O)nn1)CCOCCOCCOCCn1cc(CCO[C@H]2O[C@H](CCP(=O)(O)O)[C@@H](O)[C@H](O)[C@@H]2O)nn1)Oc1c(F)c(F)c(F)c(F)c1F [Compound I-12]
half life (serum rIgG1) compared to Compound I-7 conjugate [1]: longer half life
binding affinity to M6PR compared to Compound I-7 [2]: weaker binding affinity
uptake of IgG2a-Alexa488 into Jurkat cells (Jurkat cells): sufficiently robust uptake
